Experimental data reported in patent publication US20230001083A1, “ACTUATABLE DEVICE FOR PULSATILE DRUG DELIVERY” (Massachusetts Institute of Technology, priority 2019, published 2023).
Where two headings read alike, the source gives them in different places.

What was measured:
[1] = In vivo pharmacokinetics of lisinopril, pump versus subcutaneous injection; conditions: for Cmax: plasma, read-out: maximum plasma concentration (Cmax)
Method: The time taken to reach the Cmax (Tmax) was 30 min in both groups. […] Drug leakage in the implanted pump was not detected during the non-actuation periods over a 28-day period.

[2] = Stability of drug formulation stored in the pump at 37° C.; format: physicochemical; conditions: stored in the pump at 37° C. for 4 weeks

Cmax ([1]; other: implanted pump, Pump-lisinopril group) [ng/mL] | Cmax ([1]; sc, Inj-lisinopril group (subcutaneous injection)) [ng/mL] | area under the curve of plasma lisinopril concentration versus time (AUC) ([1]; pump group) [ng·min/mL] | area under the curve of plasma lisinopril concentration versus time (AUC) ([1]; subcutaneous injection group) [ng·min/mL] | SMILES | stability of formulation in the pump [2]
394 ± 83.2 | 323 ± 64.7 | 25335.5 ± 7640.9 | 24484.5 ± 5643.8 | NCCCC[C@H](N[C@@H](CCc1ccccc1)C(=O)O)C(=O)N1CCC[C@H]1C(=O)O [lisinopril] | –
– | – | – | – | CC(C)C[C@H]1C(=O)N2CCC[C@H]2[C@]2(O)O[C@](NC(=O)[C@@H]3C=C4c5cccc6[nH]c(Br)c(c56)C[C@H]4N(C)C3)(C(C)C)C(=O)N12 [bromocriptine] | stable without apparent denaturation
